Series [1] concerns recombinant NL4-3 virus (nef section replaced with Renilla luciferase gene) in MT-2 cells. Description: HIV cell culture assay (antiviral activity, luciferase readout). Type of series: cell-based. Particulars: MT-2 cells infected for 4-5 days with recombinant NL4-3 luciferase virus. The protocol: HIV cell culture assay—MT-2 cells, 293T cells and the proviral DNA clone of NL4-3 virus were obtained from the NIH AIDS Research and Reference Reagent Program. MT-2 cells were propagated in RPMI 1640 media supplemented with 10% heat inactivated fetal bovine serum (FBS), 100 μg/ml penicillin G and up to 100 units/mL streptomycin. The 293T cells were propagated in DMEM media supplemented with 10% heat inactivated FBS, 100 μg/mL penicillin G and 100 μg/mL streptomycin. A recombinant NL4-3 proviral clone, in which a section of the nef gene was replaced with the Renilla luciferase gene, was used to make the reference virus used in these studies. The recombinant virus was prepared through transfection of the recombinant NL4-3 proviral clone into 293T cells using Transit-293 Transfection Reagent from Mirus Bio LLC (Madison, Wis.). Supernatent was harvested after 2-3 days and the amount of virus present was titered in MT-2 cells using luciferase enzyme activity as a marker by measuring luciferase enzyme activity. Luciferase was quantitated using the EnduRen Live Cell Substrate from Promega (Madison, Wis.). Antiviral activities of compounds toward the recombinant virus were quantified by measuring luciferase activity in MT-2 cells infected for 4-5 days with the recombinant virus in the presence of serial dilutions of the compound.
The 50% effective concentration (ECs) was calculated by using the exponential form of the median effect equation where (Fa)=1/[1+(ED50/drug conc.)^m] (Johnson Va., Byington RT. Infectivity Assay. In Techniques in HIV Research. ed. Aldovini A, Walker BD. 71-76. New York: Stockton Press. 1990).

Series [2] is described as follows: Compound cytotoxicity, XTT-based colorimetric assay. The following applies: human, uninfected MT2 cells. Type of series: cell-based. Here is the method: Compound cytotoxicity and the corresponding CC50 values were determined using the same protocol as described in the antiviral assay except that uninfected cells were used. Cytotoxicity was assessed on day 4 in uninfected MT2 cells by using a XTT (2,3-bis[2-Methoxy-4-nitro-5-sulfophenyl]-2H-tetrazolium-5-carboxyanilide inner salt)-based colorimetric assay (Sigma-Aldrich, St Louis, Mo.). Biological data for select compounds of the invention are contained in Table 1 and Table 1a

Structures are written as SMILES. Bounds are passed on as bounds.

On to `Cn1nc(NS(C)(=O)=O)c2c(Cl)ccc(-n3c([C@H](Cc4cc(F)cc(F)c4)NC(=O)Cn4ccc(C(F)(F)F)n4)nc4ccc(OC(F)(F)F)cc4c3=O)c21` (single isomer, unassigned) [Example 143], for which, in series [1] (Table 1a), the EC50 amounted to 84 nM. The compound also displayed a CC50 at 4 days in series [2] (Table 1a, day 4, XTT) above 1000 nM.
As for `CC(C)n1nc(NS(C)(=O)=O)c2c(Cl)ccc(-n3c(C(Cc4cc(F)cc(F)c4)NC(=O)Cn4nc(C(F)F)c5c4C(F)(F)[C@@H]4C[C@H]54)nc4ncccc4c3=O)c21` (mixture of isomers) [Example 43.1], the EC50 in series [1] (Renilla, NL43, Table 1a) was found to be 30 nM. This compound gave a 50% cytotoxic concentration (CC50) at 4 days in series [2] (Table 1a, day 4, XTT) above 10000 nM.
For `Cc1ccc(C)c2c(=O)n(-c3ccc(Cl)c4c(NS(C)(=O)=O)nn(C)c34)c([C@H](Cc3cc(F)cc(F)c3)NC(=O)Cn3nc(C(F)F)c4c3C(F)(F)[C@@H]3C[C@H]43)nc12` (single isomer, unassigned) [Example 68] the same measures were 4.69 nM and above 1000 nM.
For `CC(C)S(=O)(=O)NC(=O)c1cc(-c2cc3[nH]ncc3nc2[C@H](Cc2cc(F)cc(F)c2)NC(=O)Cn2nc(C(F)F)c3c2C(F)(F)[C@@H]2C[C@H]32)ccc1Cl` [Example 10.19, 2-chloro-5-(5-((S)-1-(2-((3bS,4aR)-3-(difluoromethyl)-5,5-difluoro-3b,4,4a,5-tetrahydro-1H-cyclopropa[3,4]cyclopenta[1,2-c]pyrazol-1-yl)acetamido)-2-(3,5-difluorophenyl)ethyl)-1H-pyrazolo[4,3-b]pyridin-6-yl)-N-(isopropylsulfonyl)benzamide], the concentration for a half-maximal effect (EC50) in series [1] (Renilla, NL43, Table 1) worked out at 220 nM. The compound further registered a CC50 at 4 days in series [2] (Table 1, day 4, XTT) above 10000 nM.
Take `Cn1nc(NS(C)(=O)=O)c2c(Cl)ccc(-n3c([C@H](Cc4cc(F)cc(F)c4)NC(=O)Cn4nc(C(F)F)c5c4C(F)(F)[C@@H]4C[C@H]54)nc4ccc(Cl)c(F)c4c3=O)c21` (single isomer, unassigned) [Example 176]: in series [1] (Table 1a), the EC50 worked out at 0.19 nM. In series [2] (Table 1a, day 4, XTT), this compound showed a CC50 at 4 days above 1000 nM.
Take `NC(=O)c1cc(-c2cc3[nH]ncc3nc2[C@H](Cc2cc(F)cc(F)c2)NC(=O)Cn2nc(C(F)F)c3c2C(F)(F)[C@@H]2C[C@H]32)ccc1F` [Example 10.6, 5-(5-((S)-1-(2-((3bS,4aR)-3-(difluoromethyl)-5,5-difluoro-3b,4,4a,5-tetrahydro-1H-cyclopropa[3,4]cyclopenta[1,2-c]pyrazol-1-yl)acetamido)-2-(3,5-difluorophenyl)ethyl)-1H-pyrazolo[4,3-b]pyridin-6-yl)-2-fluorobenzamide]: the EC50 in series [1] (Renilla, NL43, Table 1) is 16 nM. The compound further gave a CC50 at 4 days in series [2] (Table 1, day 4, XTT) above 10000 nM.
`O=C(Cn1nc(C(F)F)c2c1C(F)(F)[C@@H]1C[C@H]21)N[C@@H](Cc1cc(F)cc(F)c1)c1nc2cc[nH]c2cc1-c1ccc(S(=O)(=O)N2CCOCC2)cc1` [Example 65, 2-((3bS,4aR)-3-(difluoromethyl)-5,5-difluoro-3b,4,4a,5-tetrahydro-1H-cyclopropa[3,4]cyclopenta[1,2-c]pyrazol-1-yl)-N—((S)-2-(3,5-difluorophenyl)-1-(6-(4-(morpholinosulfonyl)phenyl)-1H-pyrrolo[3,2-b]pyridin-5-yl)ethyl)acetamide]: the EC50 in series [1] (Renilla, NL43, Table 1a) was determined as 2.03 nM. In addition, in series [2] (Table 1a, day 4, XTT), the CC50 at 4 days was determined as 2000 nM.
Taken in the same sequence, the figures for `Cn1nc(NS(C)(=O)=O)c2c(Cl)ccc(-n3c([C@H](Cc4cc(F)cc(F)c4)NC(=O)Cn4nc(C(F)F)c5c4CCC5)nc4ncccc4c3=O)c21` (single isomer, unassigned) [Example 46.1] were 10.3 nM and above 1000 nM.
Turning to `COc1cc(F)c2c(=O)n(-c3ccc(Cl)c4c(NS(C)(=O)=O)nn(C)c34)c([C@H](Cc3cc(F)cc(F)c3)NC(=O)Cn3nc(C(F)F)c4c3C(F)(F)[C@@H]3C[C@H]43)nc2c1` (single isomer, unassigned) [Example 186], in series [1] (Table 1a), the EC50 amounted to 0.072 nM. Also, in series [2] (Table 1a, day 4, XTT), the CC50 at 4 days is above 1000 nM.
In the case of `CS(=O)(=O)Nc1nn(CC(F)F)c2c(-n3c([C@H](Cc4cc(F)cc(F)c4)NC(=O)Cn4nc(C(F)F)c5c4C(F)(F)[C@@H]4C[C@H]54)nc4ncccc4c3=O)ccc(Cl)c12` (single isomer, unassigned) [Example 44.1], the EC50 in series [1] (Renilla, NL43, Table 1a) came to 0.049 nM. Further, the CC50 at 4 days in series [2] (Table 1a, day 4, XTT) is above 10000 nM.
`O=C(Cn1nc(C(F)F)c2c1C(F)(F)[C@@H]1C[C@H]21)N[C@@H](Cc1cc(F)cc(F)c1)c1nc2cn[nH]c2cc1-c1ccc(Cl)c(C(=O)NS(=O)(=O)C2CCCC2)c1` [Example 10.21, 2-Chloro-N-(cyclopentylsulfonyl)-5-(5-((S)-1-(2-((3bS,4aR)-3-(difluoromethyl)-5,5-difluoro-3b,4,4a,5-tetrahydro-1H-cyclopropa[3,4]cyclopenta[1,2-c]pyrazol-1-yl)acetamido)-2-(3,5-difluorophenyl)ethyl)-1H-pyrazolo[4,3-b]pyridin-6-yl)benzamide]: the EC50 in series [1] (Renilla, NL43, Table 1) was found to be 240 nM. In addition, the CC50 at 4 days in series [2] (Table 1, day 4, XTT) is above 10000 nM.
On to `Cn1nc(NS(C)(=O)=O)c2c(Cl)ccc(-n3c([C@H](Cc4cc(F)cc(F)c4)NC(=O)Cn4ccc(C5CC5)n4)nc4c(F)ccc(F)c4c3=O)c21` (single isomer, unassigned) [Example 145], for which the EC50 in series [1] (Table 1a) was 30.2 nM. For the same compound, the CC50 at 4 days in series [2] (Table 1a, day 4, XTT) is above 1000 nM.
Taken in the same sequence, the figures for `Cn1nc(NS(C)(=O)=O)c2c(Cl)ccc(-n3c([C@H](Cc4cc(F)cc(F)c4)NC(=O)Cn4nc(C(F)F)c5c4C(F)(F)[C@@H]4C[C@H]54)nc4ccc(F)c(Cl)c4c3=O)c21` (single isomer, unassigned) [Example 160] were 0.18 nM and above 1000 nM.
Regarding `Cc1ccc2c(=O)n(-c3ccc(Cl)c4c(NS(C)(=O)=O)nn(C)c34)c(C(Cc3cc(F)cc(F)c3)NC(=O)Cn3nc(C(F)F)c4c3C(F)(F)[C@@H]3C[C@H]43)nc2n1` (mixture of isomers) [Example 41.1], the 50% effective concentration (EC50) in series [1] (Renilla, NL43, Table 1a) worked out at 21.2 nM. For the same compound, the CC50 at 4 days in series [2] (Table 1a, day 4, XTT) was above 10000 nM.
For `Cn1nc(NS(C)(=O)=O)c2c(Cl)ccc(-n3c([C@H](Cc4cc(F)cc(F)c4)NC(=O)Cn4nc(C(F)F)c5c4C(F)(F)[C@@H]4C[C@H]54)nc4ccc(F)cc4c3=O)c21` (single isomer, unassigned) [Example 21], the EC50 in series [1] (Renilla, NL43, Table 1) worked out at 45 nM. In series [2] (Table 1, day 4, XTT), the CC50 at 4 days was above 2700 nM.
For `CC(C)c1ccc(-n2c([C@H](Cc3cc(F)cc(F)c3)NC(=O)Cn3nc(C(F)F)c4c3C(F)(F)[C@@H]3C[C@H]43)nc3ccccc3c2=O)cn1` [Example 10.34] the same measures were 15 nM and 7900 nM.
Consider `COc1ccc(-n2c([C@H](Cc3cc(F)cc(F)c3)NC(=O)Cc3c[nH]c4ccc(O)cc34)nc3ncccc3c2=O)cc1` [Example 9.2, (S)—N-(2-(3,5-difluorophenyl)-1-(3-(4-methoxyphenyl)-4-oxo-3,4-dihydropyrido[2,3-d]pyrimidin-2-yl)ethyl)-2-(5-hydroxy-1H-indol-3-yl)acetamide], for which the EC50 in series [1] (Renilla, NL43, Table 1) was determined as 4.7 nM. In series [2] (Table 1, day 4, XTT), this compound returned a CC50 at 4 days above 10000 nM.
For `CS(=O)(=O)Nc1nn(CC(F)F)c2c(-n3c([C@H](Cc4cc(F)cc(F)c4)NC(=O)Cn4nc(C(F)F)c5c4C(F)(F)C4CC54)nc4ncccc4c3=O)ccc(Cl)c12` (single isomer, unassigned) [Example 14.1] the same measures were 49 nM and above 10000 nM.
As to `Cn1nc(NS(C)(=O)=O)c2c(Cl)ccc(-c3cc4[nH]cc(Cl)c4nc3[C@H](Cc3cc(F)cc(F)c3)NC(=O)Cn3nc(C(F)F)c4c3C(F)(F)[C@@H]3C[C@H]43)c21` (single isomer, unassigned) [Example 89], the EC50 in series [1] (Renilla, NL43, Table 1a) amounted to 0.66 nM. The compound further registered a CC50 at 4 days in series [2] (Table 1a, day 4, XTT) above 10000 nM.
With `Cn1nc(NS(C)(=O)=O)c2c(Cl)ccc(-n3c([C@H](Cc4cc(F)cc(F)c4)NC(=O)Cn4nc(C(F)F)c5c4C(F)(F)[C@@H]4C[C@H]54)nc4cc(C(C)(C)C)ccc4c3=O)c21` (mixture of isomers) [Example 215, N—((S)-1-(7-(tert-Butyl)-3-(4-chloro-1-methyl-3-(methylsulfonamido)-1H-indazol-7-yl)-4-oxo-3,4-dihydroquinazolin-2-yl)-2-(3,5-difluorophenyl)ethyl)-2-((3bS,4aR)-3-(difluoromethyl)-5,5-difluoro-3b,4,4a,5-tetrahydro-1H-cyclopropa[3,4]cyclopenta[1,2-c]pyrazol-1-yl)acetamide], the EC50 in series [1] (Table 1a) was 354 nM. This compound also displayed a CC50 at 4 days in series [2] (Table 1a, day 4, XTT) above 1000 nM.

The values are drawn from patent US10954252B1, “Inhibitors of human immunodeficiency virus replication” (ViiV HEALTHCARE UK (NO.5) LIMITED, priority 2017, dated 2021).
